{"source": "patent US12559553B2", "about": "“IL-31 modulators for treating FXR-induced pruritus” (Gilead Sciences, Inc., priority 2021, dated 2026)", "key": {"IL-31 [1]": {"tested_on": "IL-31", "test": "Serum IL-31 (SIMOA assay), Phase 2 study of cilofexor in PSC patients", "format": "in vivo, human", "protocol": "(§1) Serum IL-31 (SIMOA® assay; Myriad, Austin, TX) was measured in two Phase 2 studies of cilofexor (CILO, a non-steroidal FXR agonist) in PSC (n=52) and PBC (n=71). In all studies, patients were randomized 2:2:1 to CILO 100 mg, 30 mg, or placebo daily. Associations between serum IL-31 and pruritus-related adverse events and patient-reported outcomes (Visual Analog Scale [VAS] and 5-D Itch) were determined."}, "[2]": {"test": "Pruritus adverse events, Phase 2 study of cilofexor in PSC patients", "format": "in vivo, human", "protocol": "as §1"}, "FGF-19 [3]": {"tested_on": "FGF-19", "test": "FGF-19 target engagement in NASH patients", "format": "in vivo, human", "description": "(§2) Activation of FXR in the intestinal epithelial cells induces FGF-19 secretion. FGF-19 suppressed CYP7A1 expression, which is a key enzyme to […] 7α-hydroxycholesterol. 7α-hydroxycholesterol is metabolized into 7α-hydroxy-4-cholesten-3-one (C4). The increased FGF-19 and reduced C4 levels in circulation are target engagement assessments for FXR agonists."}, "IL-4": {"tested_on": "IL-4", "test": "Serum IL-4 and other inflammatory markers in the CILO NASH study", "format": "in vivo, human", "settings": "NASH patients", "protocol": "IL-31 is expressed and secreted by activated T helper 2 (Th2) cell. IL-4, a type II immune cytokine, was associated with activation of Th2 cells and serum IL-31 levels in patients with atopic dermatitis. Serum IL-4 levels were assessed in the CILO NASH and PSC studies."}, "IL-31 [4]": {"tested_on": "IL-31", "test": "Serum IL-31 (SIMOA assay), Phase 2 study of cilofexor in PBC patients", "format": "in vivo, human", "protocol": "as §1, with “determined. In PBC, IL-31 correlated to VAS (ρ=0.42, p<0.001) and 5-D Itch (ρ=0.58, p<0.001) (Table 6).” for “determined.”"}, "IL-31 [5]": {"tested_on": "IL-31", "test": "Serum IL-31 (SIMOA assay), Phase 2 study of cilofexor in non-cirrhotic NASH patients", "format": "in vivo, human", "settings": "for Serum IL-31, median (IQR) / Increase of IL-31 in patients with grade 2 or 3 pruritus versus the others: NASH", "protocol": "as §1, with “(SIMOA©assay;” for “(SIMOA® assay;”, “a” for “two”, “study” for “studies”, “non-cirrhotic NASH (n=140) patients. Patients” for “PSC (n=52) and PBC (n=71). In all studies, patients”"}, "IL-31 [6]": {"tested_on": "IL-31", "test": "Serum IL-31 pre-dose and post-dose, CILO phase 1 study in healthy volunteers", "format": "in vivo, human", "protocol": "In the CILO phase 1 study, serum IL-31 levels were assessed in pre-dose and post-dose (from 1 to 8 hr) samples from the healthy volunteers (HVs) with placebo or CILO 30 mg, 100 mg or 300 mg. The HVs with CILO 100 mg or 300 mg had elevated serum IL-31 levels with peak concentration at 4-6 hr post-dose samples (data not shown). A similar intensive sampling study was also performed in the CILO NASH study. IL-31 levels in the serially collected samples were compared in NASH patients and HVs with CILO 100 mg. In HVs with CILO 100 mg, serum IL-31 achieved the peak concentration of 0.22 pg/mL and 2.6 fold increase from pre-dose (data not shown). NASH patients with the same dose had more increased serum IL-31 than HV."}, "FGF-19 [7]": {"tested_on": "FGF-19", "test": "FGF-19 target engagement in healthy volunteers", "format": "in vivo, human", "settings": "CILO 100 mg, 4 hr post-dose", "description": "as §2"}, "IL-31 [8]": {"tested_on": "IL-31", "test": "Serum IL-31 in serially collected samples (intensive sampling), CILO NASH study", "format": "in vivo, human", "settings": "NASH patients, CILO 100 mg", "protocol": "A similar intensive sampling study was also performed in the CILO NASH study. IL-31 levels in the serially collected samples were compared in NASH patients and HVs with CILO 100 mg. In HVs with CILO 100 mg, serum IL-31 achieved the peak concentration of 0.22 pg/mL and 2.6 fold increase from pre-dose (data not shown). NASH patients with the same dose had more increased serum IL-31 than HV. […] Activation of FXR in the intestinal epithelial cells induces FGF-19 secretion. FGF-19 suppressed CYP7A1 expression, which is a key enzyme to […] 7α-hydroxycholesterol. 7α-hydroxycholesterol is metabolized into 7α-hydroxy-4-cholesten-3-one (C4). The increased FGF-19 and reduced C4 levels in circulation are target engagement assessments for FXR agonists."}, "[9]": {"tested_on": "7α-hydroxy-4-cholesten-3-one (C4)", "test": "C4 levels in circulation, CILO NASH study", "format": "in vivo, human", "description": "as §2"}, "[10]": {"test": "Cholestasis (ALP and BA levels) in PSC and PBC patients", "format": "in vivo, human"}, "human IL-31": {"tested_on": "human IL-31", "test": "IL-31 in chimeric PXB mice with human hepatocytes treated with OCA", "format": "in vivo", "settings": "OCA 10 mg/kg QD for 18 days"}, "[11]": {"settings": "serially collected blood samples, 100 mg CILO, 6 hr post-dose"}, "[12]": {"settings": "PBC, serially collected blood samples, 100 mg CILO, 5 hr post-dose"}}, "note": "Values joined by “and” are separate entries in the source; they are usually repeats but may differ in a detail not shown here. Equal entries are not always repeated. “Also recorded” adds a separate entry of the source.", "data": [{"molecule": "O=C(O)c1ccnc(N2CC(O)(c3ccc(OCc4c(-c5c(Cl)cccc5Cl)noc4C4CC4)cc3Cl)C2)c1", "note": "[CILO, cilofexor]", "values": [{"measurement": "Dose-dependent effect on serum IL-31", "setting": "IL-31 [1]", "result": "not observed"}, {"measurement": "Effect on serum IL-31 levels", "setting": "IL-31 [1]; 12-week treatment", "result": "did not alter; also recorded: no effect"}, {"measurement": "Effect on pruritus", "setting": "[2]", "result": "did not exacerbate pruritus"}, {"measurement": "Any Grade pruritus, patients", "setting": "[2]; CILO 30 mg", "result": 5}, {"measurement": "Grade 1 pruritus, patients", "setting": "[2]; CILO 30 mg", "result": 2}, {"measurement": "Grade 2 pruritus, patients", "setting": "[2]; CILO 30 mg", "result": 1}, {"measurement": "Grade 3 pruritus, patients", "setting": "[2]; CILO 30 mg", "result": 2}, {"measurement": "Patients who reported grade 2 or 3 pruritus", "setting": "[2]; CILO 30 mg", "result": 3, "unit": "subjects"}, {"measurement": "Any Grade pruritus, patients", "setting": "[2]; CILO 100 mg", "result": 8}, {"measurement": "Grade 1 pruritus, patients", "setting": "[2]; CILO 100 mg", "result": 5}, {"measurement": "Grade 2 pruritus, patients", "setting": "[2]; CILO 100 mg", "result": 1}, {"measurement": "Grade 3 pruritus, patients", "setting": "[2]; CILO 100 mg", "result": 2}, {"measurement": "Patients who reported grade 2 or 3 pruritus", "setting": "[2]; CILO 100 mg", "result": 3, "unit": "subjects"}, {"measurement": "FGF-19 peak concentration", "setting": "FGF-19 [3]; NASH patients, CILO 100 mg, 4 hr post-dose", "result": 829.7, "unit": "pg/mL"}, {"measurement": "FGF-19 increase from pre-dose", "setting": "FGF-19 [3]; [11]", "result": 45.9, "unit": "fold"}, {"measurement": "FGF-19 peak concentration", "setting": "FGF-19 [3]; [11]", "result": "around 1826 pg/mL"}, {"measurement": "FGF-19 median at pre-dose", "setting": "FGF-19 [3]; serially collected blood samples, 100 mg CILO, pre-dose", "result": 39.8, "unit": "pg/mL"}, {"measurement": "Effect on other inflammatory markers (IL-4 and IL-18)", "setting": "IL-4", "result": "without changing"}, {"measurement": "Effect on serum IL-4", "setting": "IL-4", "result": "did not elevate"}, {"measurement": "Dose-dependent effect on serum IL-31", "setting": "IL-31 [4]; PBC patients", "result": "not observed"}, {"measurement": "Effect on serum IL-31 levels", "setting": "IL-31 [4]; PBC patients, fasting samples at Weeks 1, 4 and 12, compared to placebo", "result": "did NOT change; also recorded: no effect; also recorded: did not alter"}, {"measurement": "IL-31 increase from pre-dose", "setting": "IL-31 [4]; [12]", "result": 2.5, "unit": "fold"}, {"measurement": "IL-31 level post-dose", "setting": "IL-31 [4]; [12]", "result": 7.4, "unit": "pg/mL"}, {"measurement": "IL-31 median level at pre-dose", "setting": "IL-31 [4]; PBC, serially collected blood samples, 100 mg CILO, pre-dose", "result": 3, "unit": "pg/mL"}, {"measurement": "Effect on serum IL-31", "setting": "IL-31 [5]; NASH patients, week 1 to week 24, 30 mg and 100 mg", "result": "increased serum IL-31 in a dose-dependent manner"}, {"measurement": "Serum IL-31, median (IQR)", "setting": "IL-31 [5]; CILO 30 mg, Baseline", "result": 0.09, "unit": "pg/mL"}, {"measurement": "Serum IL-31, median (IQR)", "setting": "IL-31 [5]; CILO 30 mg, Week 1", "result": 0.15, "unit": "pg/mL"}, {"measurement": "Serum IL-31, median (IQR)", "setting": "IL-31 [5]; CILO 30 mg, Week 4", "result": 0.105, "unit": "pg/mL"}, {"measurement": "Serum IL-31, median (IQR)", "setting": "IL-31 [5]; CILO 30 mg, Week 8", "result": 0.14, "unit": "pg/mL"}, {"measurement": "Serum IL-31, median (IQR)", "setting": "IL-31 [5]; CILO 30 mg, Week 12", "result": 0.145, "unit": "pg/mL"}, {"measurement": "Serum IL-31, median (IQR)", "setting": "IL-31 [5]; CILO 30 mg, Week 24", "result": "0.15 (0.062, 0.27) pg/mL and 0.15 pg/mL"}, {"measurement": "Serum IL-31, median (IQR)", "setting": "IL-31 [5]; CILO 100 mg, Baseline", "result": 0.083, "unit": "pg/mL"}, {"measurement": "Serum IL-31, median (IQR)", "setting": "IL-31 [5]; CILO 100 mg, Week 1", "result": 0.21, "unit": "pg/mL"}, {"measurement": "Serum IL-31, median (IQR)", "setting": "IL-31 [5]; CILO 100 mg, Week 4", "result": 0.24, "unit": "pg/mL"}, {"measurement": "Serum IL-31, median (IQR)", "setting": "IL-31 [5]; CILO 100 mg, Week 8", "result": 0.26, "unit": "pg/mL"}, {"measurement": "Serum IL-31, median (IQR)", "setting": "IL-31 [5]; CILO 100 mg, Week 12", "result": 0.26, "unit": "pg/mL"}, {"measurement": "Serum IL-31, median (IQR)", "setting": "IL-31 [5]; CILO 100 mg, Week 24", "result": "0.26 (0.13, 0.82) pg/mL and 0.26 pg/mL"}, {"measurement": "Increase of IL-31 in patients with grade 2 or 3 pruritus versus the others", "setting": "IL-31 [5]; W1", "result": 5.1, "unit": "fold"}, {"measurement": "Increase of IL-31 in patients with grade 2 or 3 pruritus versus the others", "setting": "IL-31 [5]; W4", "result": 2.9, "unit": "fold"}, {"measurement": "Increase of IL-31 in patients with grade 2 or 3 pruritus versus the others", "setting": "IL-31 [5]; W8", "result": 3.8, "unit": "fold"}, {"measurement": "Increase of IL-31 in patients with grade 2 or 3 pruritus versus the others", "setting": "IL-31 [5]; W12", "result": 4.5, "unit": "fold"}, {"measurement": "Increase of IL-31 in patients with grade 2 or 3 pruritus versus the others", "setting": "IL-31 [5]; W24", "result": 7, "unit": "fold"}, {"measurement": "Serum IL-31 peak concentration", "setting": "IL-31 [6]; CILO 100 mg", "result": 0.22, "unit": "pg/mL"}, {"measurement": "Serum IL-31 levels post-dose", "setting": "IL-31 [6]; CILO 100 mg or 300 mg", "result": "elevated"}, {"measurement": "Time of peak serum IL-31 concentration post-dose", "setting": "IL-31 [6]; CILO 100 mg or 300 mg", "result": "4 to 6", "unit": "h"}, {"measurement": "Serum IL-31 increase from pre-dose", "setting": "IL-31 [6]; CILO 100 mg, at peak", "result": 2.6, "unit": "fold"}, {"measurement": "FGF-19 peak concentration", "setting": "FGF-19 [7]", "result": 591.6, "unit": "pg/mL"}, {"measurement": "Serum IL-31 peak concentration", "setting": "IL-31 [8]; 4-6 hr post-dose", "result": "13 pg/mL and 12 to 13 pg/mL"}, {"measurement": "Serum IL-31 increase from pre-dose", "setting": "IL-31 [8]; at peak", "result": "23.6 fold and 21.8-23.6 fold"}, {"measurement": "C4 levels compared to placebo", "setting": "[9]; W24, CILO 30 mg", "result": "significantly declined"}, {"measurement": "C4 levels compared to placebo", "setting": "[9]; W24, CILO 100 mg", "result": "significantly declined"}, {"measurement": "Effect on cholestasis (ALP and BA levels)", "setting": "[10]", "result": "improved cholestasis"}]}, {"molecule": "CC[C@H]1[C@@H](O)[C@@H]2[C@H](CC[C@]3(C)[C@@H]([C@H](C)CCC(=O)O)CC[C@@H]23)[C@@]2(C)CC[C@@H](O)C[C@@H]12", "note": "[OCA, obeticholic acid]", "values": [{"measurement": "Hepatic IL-31 mRNA expression vs vehicle", "setting": "human IL-31", "result": 7.8, "unit": "fold"}]}]}
